The record followed here is ChEMBL document CHEMBL1201862, “PubChem BioAssay data set” (2004).

Test systems include HOP-92; A498; MDA-MB-435; NCI-H23; SR; ACHN; MOLT-4; UO-31; HCC 2998; LOX IMVI; Malme-3M; SF-539; NCI-H460; OVCAR-3; SK-MEL-28; MCF7; SW-620; KM12; OVCAR-4; CCRF-CEM.
Holding throughout (assay): DTP human tumour cell line panel, 48 h

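48-hour exposure; five concentrations; linearly interpolated endpoints. Abbreviation: GI50, concentration required for 50% inhibition of growth.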 Activity calls are given as the source filed them. No stated cut-off is given here; in the data, active = GI50 up to about 1.1 µM and inactive = higher.

With `Cc1cc(C)cc(Nc2cc(O)nc(O)n2)c1`, the GI50 with HOP-92, with A498, in the experiment with MDA-MB-435, in the experiment with NCI-H23, with SR and with ACHN was > 100 µM (inactive) each time. The GI50 in the experiment on MOLT-4, in the experiment with UO-31, with HCC 2998, in the experiment with LOX IMVI, with Malme-3M and with SF-539 was > 100 µM (inactive) throughout. The GI50 in the experiment on NCI-H460, in the experiment on OVCAR-3, with SK-MEL-28, with MCF7, in the experiment on SW-620 and with KM12 was > 100 µM (inactive) throughout. For the same molecule, the GI50 with OVCAR-4 and with CCRF-CEM was > 100 µM (inactive) in each case.

With `CC(N)/C(N)=N/O` (stereo unspecified), the GI50 with HOP-92, in the experiment on A498, in the experiment with MDA-MB-435, in the experiment on NCI-H23, with SR and in the experiment with ACHN was > 100 µM (inactive) in each case. The GI50 in the experiment on UO-31, with HCC 2998, in the experiment on LOX IMVI, in the experiment with Malme-3M, in the experiment on SF-539 and in the experiment on NCI-H460 was > 100 µM (inactive) each time. For the same molecule, the GI50 in the experiment with OVCAR-3, in the experiment with SK-MEL-28, in the experiment on MCF7, in the experiment with SW-620, in the experiment on KM12 and with OVCAR-4 was > 100 µM (inactive) throughout. Moreover, the GI50 with CCRF-CEM is > 100 µM (inactive).

Regarding `COc1ccc2c(C)cc(N/N=C/c3ccc(C)s3)nc2c1`, the GI50 is 19.5 µM (inactive) in the experiment with HOP-92; 19.4 µM (inactive) in the experiment on A498; 16.3 µM (inactive) in the experiment on MDA-MB-435; 12.3 µM (inactive) with NCI-H23; 5.18 µM (inactive) in the experiment on SR; 18 µM (inactive) with ACHN. For the same molecule, the GI50 in the experiment with MOLT-4 was 5.94 µM (inactive); in the experiment with UO-31 it was 13.6 µM (inactive); in the experiment on HCC 2998 it was 6.11 µM (inactive); in the experiment on LOX IMVI it was 3.46 µM (inactive); with Malme-3M, 17.7 µM (inactive); in the experiment with SF-539 it was 13.6 µM (inactive). Further, the GI50 in the experiment with NCI-H460 is 5.27 µM (inactive); in the experiment with OVCAR-3, 2.94 µM (inactive); with SK-MEL-28, 24.7 µM (inactive); with MCF7 it was 6.24 µM (inactive); with SW-620, 13.1 µM (inactive); in the experiment on KM12, 5.18 µM (inactive). The GI50 with OVCAR-4 was 11.1 µM (inactive); in the experiment with CCRF-CEM it was 5.37 µM (inactive).

As for `O=C(/C=C/c1cccc(Br)c1)N1CCN(CCOC(c2ccccc2)c2ccccc2)CC1`, the GI50 with HOP-92 is 23 µM (inactive); with A498, 44.9 µM (inactive); in the experiment with MDA-MB-435, 38.7 µM (inactive); with NCI-H23, 42 µM (inactive); in the experiment with SR it was 16.1 µM (inactive); in the experiment on ACHN, 57.3 µM (inactive). Besides, the GI50 in the experiment with MOLT-4 is 6.53 µM (inactive); in the experiment on UO-31, 25.4 µM (inactive); in the experiment on HCC 2998 it was 46.6 µM (inactive); in the experiment with LOX IMVI, 24.2 µM (inactive); in the experiment on Malme-3M, 36.4 µM (inactive); in the experiment on SF-539, 18.4 µM (inactive). In addition, the GI50 is 31.8 µM (inactive) in the experiment with NCI-H460; 50.5 µM (inactive) in the experiment on OVCAR-3; > 100 µM (inactive) in the experiment on SK-MEL-28; 35 µM (inactive) with MCF7; 50.8 µM (inactive) in the experiment on SW-620; 32 µM (inactive) in the experiment with KM12. The GI50 is 63.2 µM (inactive) in the experiment on OVCAR-4 and 17.1 µM (inactive) with CCRF-CEM.

For `C=CN1CCN(c2ccccc2)P1(=O)Oc1ccccc1` (stereo unspecified), the GI50 was 50.9 µM (inactive) in the experiment with HOP-92; > 100 µM (inactive) in the experiment with A498; 90.6 µM (inactive) in the experiment with MDA-MB-435; > 100 µM (inactive) in the experiment on NCI-H23; > 100 µM (inactive) with SR; 48.8 µM (inactive) with ACHN. The GI50 in the experiment on MOLT-4 is > 100 µM (inactive); in the experiment on UO-31, 20 µM (inactive); in the experiment with HCC 2998, > 100 µM (inactive); in the experiment with LOX IMVI, > 100 µM (inactive); in the experiment with Malme-3M, > 100 µM (inactive); in the experiment on SF-539, > 100 µM (inactive). In addition, the GI50 in the experiment on NCI-H460, with OVCAR-3, in the experiment with SK-MEL-28, with MCF7, with SW-620 and with KM12 was > 100 µM (inactive) each time. Moreover, the GI50 with OVCAR-4 and in the experiment on CCRF-CEM was > 100 µM (inactive) in each case.

`Cc1cccc2sc(NC(=O)c3cc([N+](=O)[O-])ccc3Cl)nc12`: the GI50 in the experiment on HOP-92 is 2.77 µM (inactive); in the experiment with A498, 17.3 µM (inactive); in the experiment with MDA-MB-435 it was 2.67 µM (inactive); with NCI-H23, 2.79 µM (inactive); in the experiment on SR it was > 100 µM (inactive); in the experiment on ACHN it was 5.41 µM (inactive). Besides, the GI50 in the experiment on UO-31 was 2.34 µM (inactive); in the experiment on HCC 2998, 9.33 µM (inactive); in the experiment with LOX IMVI it was 2.01 µM (inactive); with Malme-3M it was 5.38 µM (inactive); in the experiment with SF-539, 2.36 µM (inactive); with NCI-H460 it was 3.96 µM (inactive). The GI50 in the experiment with OVCAR-3 was 4.06 µM (inactive); in the experiment on SK-MEL-28, 5.22 µM (inactive); in the experiment on MCF7, 1.68 µM (inactive); in the experiment with SW-620 it was 2.42 µM (inactive); in the experiment with KM12, 2.42 µM (inactive); in the experiment with OVCAR-4, 8.51 µM (inactive). The GI50 in the experiment with CCRF-CEM is 0.0817 µM (active).

Turning to `C=CCN1C[C@H](C)N([C@@H](c2ccc(C(=O)N3CCCCC3)cc2)c2cccc(OC)c2)C[C@H]1C`, the GI50 is 98.6 µM (inactive) with HOP-92; 29.4 µM (inactive) with A498; 35 µM (inactive) with MDA-MB-435; 42.4 µM (inactive) with NCI-H23; 16.1 µM (inactive) with SR; 32.3 µM (inactive) in the experiment with ACHN. Besides, the GI50 in the experiment with MOLT-4 is 64.1 µM (inactive); with UO-31, 24.4 µM (inactive); in the experiment with HCC 2998, 31.6 µM (inactive); in the experiment on LOX IMVI it was 14.4 µM (inactive); in the experiment on Malme-3M, 18.5 µM (inactive); with SF-539, 27 µM (inactive). Moreover, the GI50 was 31 µM (inactive) in the experiment with NCI-H460; 49.2 µM (inactive) with OVCAR-3; 30.1 µM (inactive) in the experiment on MCF7; 36.9 µM (inactive) in the experiment with KM12; 56.4 µM (inactive) in the experiment with OVCAR-4; 21.5 µM (inactive) with CCRF-CEM.

Usually GI50 stands for the concentration giving 50% growth inhibition.
